What was measured:
[1] = test system: high-[iron(III)] TAM clusters in MycCaP tumors; assay: FeMRI measurement of high-[iron(III)] TAM clusters in MycCaP tumors; type: in vivo, FVB/N mice
Procedure: TAM clusters was measured by FeMRI at each week of treatment as a function of percent infiltration in MycCaP tumors. […] These low-[iron(III)] and high-[iron(III)] populations were mapped by thresholding the tumor Fe[(III)] distribution in these ranges on the FeMRI. The low-[iron(III)] map consisted of dense pixel clusters distributed throughout the tumor, while the high-[iron(III)] map contained sparse clusters with average cluster size of approximately 4 MRI pixel^2≈0.05 mm^2 primarily at the outer tumor margins (n=10 mice). To quantify the extent of infiltration of these TAM clusters, an image-processing algorithm was developed in-house with Matlab and ImageJ. This tool is based on concentric rake sampling that identifies […] CD68^+ or high-[iron(III)] colonies and maps them as a function of % infiltration into the tumor (inset FIG. 2J, […] outer edge, 100% tumor center) for arbitrarily sized histological (FIG. 2J, left […]) regions of interest. […] Immune-competent, syngeneic murine FVB/N and C57BL/6 hosts underwent orthotopic prostatic injections of 5×10^4 cells (MycCaP and TRAMP-C2, respectively), and thereafter received either sham (H2O) or DFP (150 mg/kg, 5 days/week) by oral gavage until average primary tumor burden exceeded 1 cm^3 (determined by MM) in the treated group. […]

[2] = test system: high-iron(III)+ CD68+ TAMs in MycCaP tumors; assay: Whole slice histology (Prussian Blue iron(III), CD68) of TAM infiltration in MycCaP tumors; type: in vivo, FVB/N mice
Description: In order to further quantify these low- and high-[iron(III)] sub-populations, quantitative histology was used. […] In low-iron(III)^+ regions, prostate cancer cells were found sparsely studded with ferritin particles less than 1 μm^2 (at an approximate density of 1000 ferritin particles/field; no CD68^+ macrophages were observed (FIG. 2F, 2G n=18 fields, n=6 mice). In high-iron(III)^+ regions CD68^+ TAMs were found bearing dense hemosiderin deposits in groups of approximately 24 macrophages/TAM cluster (FIG. 2F, 2G, n=18 fields, n=6 mice). With these histological findings, it was possible to estimate the per-pixel TAM number in high-[iron(III)] MRI clusters at approximately 6 macrophages/pixel. To quantify the extent of infiltration of these TAM clusters, an image-processing algorithm was developed in-house with Matlab and ImageJ. […] Immune-competent, syngeneic murine FVB/N and C57BL/6 hosts underwent orthotopic prostatic injections of 5×10^4 cells (MycCaP and TRAMP-C2, respectively), and thereafter received either sham (H2O) or DFP (150 mg/kg, 5 days/week) by oral gavage until average primary tumor burden exceeded 1 cm^3 (determined by MM) in the treated group. […]

[3] = test system: orthotopic TRAMP-C2 prostate tumors; assay: Tumor volume by MRI in orthotopic TRAMP-C2 prostate model during iron chelation therapy; type: in vivo, C57BL/6 mice; details: 150 mg/kg, 5 days/week oral gavage; long dose duration (12 weeks); syngeneic hosts; n=10, p<0.001
Description: (§1) Chelation of iron(III) has been proposed as a cancer treatment that causes reductions in tumor growth, presumably by reducing bioavailability of iron(III) to the cancer cells. However, no studies have addressed the possibility that chelation modulates TAM infiltration contributing to these anti-tumor effects. In order to investigate anti-tumor effects of iron chelation, FeMRI is used, as described herein, to monitor tumor growth in two mouse models. The faster growing MycCaP model and the slower growing TRAMP-C2 model were studied and contrasted to evaluate the effect of dose duration. Immune-competent, syngeneic murine FVB/N and C57BL/6 hosts underwent orthotopic prostatic injections of 5×10^4 cells (MycCaP and TRAMP-C2, respectively), and thereafter received either sham (H2O) or DFP (150 mg/kg, 5 days/week) by oral gavage until average primary tumor burden exceeded 1 cm^3 (determined by MM) in the treated group. […] At long dose durations (12 weeks) there was no growth of TRAMP-C2 orthotopic tumors implanted in syngeneic hosts (FIG. 3A, n=10, *p<0.001). […] (FIG. 3D, n=10, *p<0.05). […] Further, the ability to monitor TAM dynamics serially using FeMRI represents a technique that has translational use, bypassing the necessity for using invasive biopsy to obtain similar measures of stromal response to therapy.

[4] = test system: orthotopic MycCaP prostate tumors; assay: Tumor volume by MRI in orthotopic MycCaP prostate model during iron chelation therapy; type: in vivo, FVB/N mice; details: 150 mg/kg, 5 days/week oral gavage; two weeks of gavage beginning one-week post-implantation at 100 mm^3; vs sham (H2O); n=10, p<0.05
Description: as §1

Cc1c(O)c(=O)ccn1C [DFP, deferiprone]
rates of TAM infiltration ([1]; derived from changes of FeMRI infiltration profiles over time, n=10, p<0.05): reduced
FeMRI measurements of TAMs ([1]; over the full course of treatment): showed reductions
histological TAM infiltration profile ([2]; MycCaP tumor at week 3 of treatment, vs untreated group, p<0.05): less TAMs than the untreated group
high-iron(III)+ and CD68+ positive cells (histological analysis) ([2]; MycCaP tumors, 150 mg/kg oral gavage, data not shown): reduced
tumor growth [3]: no growth
smaller tumor volumes by the endpoint of the study [4]: 40%

Source: patent US11464448B2, “Innate metabolic imaging of cellular systems” (Memorial Sloan Kettering Cancer Center, priority 2016, dated 2022)
